Experimental findings from publication PMC5332414, “Mycobacterium abscessus subsp. abscessus Is Capable of Degrading Pseudomonas aeruginosa Quinolone Signals” (Frontiers in Microbiology, 2017) are described below.

One data set concerns the target T1, AqdB (His8-MBP-AqdB) (Mycobacteroides abscessus, UniProt B1MFK1).
T1 construct: His8-MBP fusion, pET28b(+), expressed in E. coli Rosetta(DE3) whole cells
Nature of the data set: biotransformation by recombinant E. coli cells, HPLC. Type of data set: cell-based. The conditions noted are these: 20 μM HHQ, LB medium; E. coli Rosetta without aqdB did not convert HHQ.

Data set [1] relates to CCCCCCCc1[nH]c2ccccc2c(=O)c1O. Nature of the data set: purified protein. Type of data set: biochemical, Mycobacteroides abscessus. The note with it: apparent, co-substrate O2, 50 mM Tris, 2 mM EDTA, 10% PEG 1500, 4% (v/v) DMSO, pH 8.0, 30°C.

T1 sequence (B1MFK1 whole entry, the tested form may be a part): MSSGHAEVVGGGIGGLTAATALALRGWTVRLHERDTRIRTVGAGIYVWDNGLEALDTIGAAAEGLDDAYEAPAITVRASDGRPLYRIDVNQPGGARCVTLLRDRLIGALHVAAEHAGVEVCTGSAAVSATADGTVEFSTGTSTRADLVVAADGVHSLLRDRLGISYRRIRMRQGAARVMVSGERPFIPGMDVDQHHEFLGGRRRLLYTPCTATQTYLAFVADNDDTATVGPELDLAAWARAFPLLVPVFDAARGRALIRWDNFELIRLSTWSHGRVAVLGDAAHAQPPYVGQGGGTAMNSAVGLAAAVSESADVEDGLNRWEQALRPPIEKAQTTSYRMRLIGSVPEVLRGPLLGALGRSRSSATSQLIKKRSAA

For `CCCCCCCc1cc(=O)c2ccccc2[nH]1` [HHQ, 2-heptyl-4(1H)-quinolone], the “biotransformation by recombinant E. coli cells, HPLC” value at AqdB (His8-MBP-AqdB) is listed as “E. coli cells producing the His8-MBP-AqdB protein converted HHQ to PQS”.

As to “AqdC (AqdC^I) (Mycobacteroides abscessus ATCC 19977)”, in data set [1], the Michaelis-Menten constant (Km) (in general, the concentration of substrate that gives half-maximal velocity) stood at 37.2 ± 9.8 µM; the kcat (commonly the number of substrate molecules converted per active site and unit of time at saturation) was found to be 97.8 ± 19.1 s⁻¹.

Consider `CCCCCCCc1[nH]c2ccccc2c(=O)c1O` [PQS, 2-heptyl-3-hydroxy-4(1H)-quinolone], for which the “biotransformation by recombinant E. coli cells, HPLC” value on AqdB (His8-MBP-AqdB) is listed as “E. coli cells producing the His8-MBP-AqdB protein converted HHQ to PQS”.
